Experimental data taken from patent US8952021B2, “Compounds for the prevention and treatment of cardiovascular disease” (Resverlogix Corp., priority 2009, dated 2015).

System: ApoA-I mRNA
Assay: Quantification of ApoA-I mRNA in HepG2 cells (real-time PCR)
Format: cell-based
Parameters: key: Active: An active compound was defined as one that caused a ≧20% increase in ApoA-I mRNA at a concentration less than or equal to 100 μM
Conditions: fold induction relative to DMSO control, concentration less than or equal to 100 μM
Method: In this example, ApoA-I mRNA in tissue culture cells was quantitated to measure the transcriptional up-regulation of ApoA-I when treated with a compound of the invention.
HepG2 cells (approximately 2×10^5 per well) were placed in a 24-well plate in approximately 400 μL MEM, supplemented with 0.5% (v/v) FBS, 24 h before addition of the compound of interest. At time of harvesting, the spent media was removed from the HepG2 cells and immediately placed on ice (for immediate use) or at −80° C. (for future use) in ApoA-I and albumin ELISAs. The cells remaining in the plate wells were rinsed in 200 μL PBS. PBS was carefully removed to avoid removing any loosely attached cells.
Once the PBS was removed, 85 μL cell lysis solution was added the cells in each well and incubated for 5-10 minutes at room temperature, to allow for complete cell lysis and detachment. mRNA was then prepared using the “mRNA Catcher PLUS plate” from Invitrogen, according to the protocol supplied. After the last wash, as much wash buffer as possible was aspirated without allowing the wells to dry. Elution Buffer (E3, 80 μL) was then added to each well. mRNA was then eluted by incubating the mRNA Catcher PLUS plate with Elution Buffer for 5 minutes at 68° C. and then immediately placing the plate on ice.
The eluted mRNA isolated was then used in a one-step real-time […] reaction, using components of the Ultra Sense Kit together with Applied Biosystems primer-probe mixes. Real-time PCR data was analyzed, using the Ct values, to determine the fold induction of each unknown sample, relative to the control (that is, relative to the control for each independent DMSO concentration).
An active compound was defined as one that caused a ≧20% increase in ApoA-I mRNA at a concentration less than or equal to 100 μM.

Row | SMILES | Effect on ApoA-I mRNA levels
1 | CCC(C)c1ccc(-n2c(-c3ccc4[nH]c(CO)cc4c3)nc3ccccc3c2=O)cc1 (stereo not drawn) [Example 82, 3-(4-sec-butylphenyl)-2-(2-(hydroxymethyl)-1H-indol-5-yl)quinazolin-4(3H)-one] | Active
2 | CCC(C)c1ccc(-n2c(-c3cncnc3)nc3ccccc3c2=O)cc1 (stereo not drawn) [Example 45, 3-(4-sec-butylphenyl)-2-(pyrimidin-5-yl)quinazolin-4(3H)-one] | Active
3 | CCC(C)c1ccc(-n2c(-c3ccc(Br)nc3)nc3ccccc3c2=O)cc1 (stereo not drawn) [Example 42, 2-(6-bromopyridin-3-yl)-3-(4-sec-butylphenyl)quinazolin-4(3H)-one] | Active
4 | O=c1c2ccccc2nc(-c2ccc3[nH]ccc3c2)n1-c1ccc(C2CCCC2)cc1 [Example 84, 3-(4-cyclopentylphenyl)-2-(1H-indol-5-yl)quinazolin-4(3H)-one] | Active
5 | O=c1c2ccccc2nc(-c2ccc(Oc3ccccc3)nc2)n1-c1ccc(Cl)cc1 [Example 50, 3-(4-chlorophenyl)-2-(6-phenoxypyridin-3-yl)quinazolin-4(3H)-one] | Active
6 | CCC(C)c1ccc(-n2c(-c3ccc(CN4CCOCC4)nc3)nc3ccccc3c2=O)cc1 (stereo not drawn) [Example 67, 3-(4-sec-butylphenyl)-2-(6-(morpholinomethyl)pyridin-3-yl)quinazolin-4(3H)-one] | Active
7 | Cc1ccc(-c2nc3ccccc3c(=O)n2-c2ccc(C3CC3)cc2)cn1 [Example 68, 3-(4-cyclopropylphenyl)-2-(6-methylpyridin-3-yl)quinazolin-4(3H)-one] | Active
8 | CCC(C)c1ccc(-n2c(-c3ccc(Oc4ccccc4)nc3)nc3ccccc3c2=O)cc1 (stereo not drawn) [Example 52, 3-(4-sec-butylphenyl)-2-(6-phenoxypyridin-3-yl)quinazolin-4(3H)-one] | Active
9 | CCC(C)c1ccc(-n2c(-c3ccc(OCCO)c(C)c3)nc3ccccc3c2=O)cc1 (stereo not drawn) [Example 33, 3-(4-sec-butylphenyl)-2-(4-(2-hydroxyethoxy)-3-methylphenyl)quinazolin-4(3H)-one] | Active
10 | CCC(C)c1ccc(-n2c(-c3cncc(N(CC)CC)c3)nc3ccccc3c2=O)cc1 (stereo not drawn) [Example 59, 3-(4-sec-butylphenyl)-2-(5-(diethylamino)pyridin-3-yl)quinazolin-4(3H)-one] | Active
11 | CN(C)c1ccc(-n2c(-c3ccc4[nH]ccc4c3)nc3ccccc3c2=O)cc1 [Example 80, 3-(4-(dimethylamino)phenyl)-2-(1H-indol-5-yl)quinazolin-4(3H)-one] | Active
12 | CCC(C)c1ccc(-n2c(-c3cncc(-c4ccccc4)c3)nc3ccccc3c2=O)cc1 (stereo not drawn) [Example 56, 3-(4-sec-butylphenyl)-2-(5-phenylpyridin-3-yl)quinazolin-4(3H)-one] | Active
13 | Cc1cc(-c2nc3ccccc3c(=O)n2-c2ccc(N(C)C)cc2)cc(C)c1OCCO [Example 32, 3-(4-(dimethylamino)phenyl)-2-(4-(2-hydroxyethoxy)-3,5-dimethylphenyl)quinazolin-4(3H)-one] | Active
14 | CCC(C)c1ccc(-n2c(-c3ccc(N4CCOCC4)nc3)nc3ccccc3c2=O)cc1 (stereo not drawn) [Example 71, 3-(4-sec-butylphenyl)-2-(6-morpholinopyridin-3-yl)quinazolin-4(3H)-one] | Active
15 | CCC(C)c1ccc(-n2c(-c3cc(C)c(OCCO)c(C)c3)nc3cc(F)ccc3c2=O)cc1 (stereo not drawn) [Example 4, 3-(4-sec-butylphenyl)-7-fluoro-2-(4-(2-hydroxyethoxy)-3,5-dimethylphenyl)quinazolin-4(3H)-one] | Active
16 | Cc1cc(-c2nc3ccccc3c(=O)n2-c2ccc(C3CCCCC3)cc2)cc(C)c1OCCO [Example 26, 3-(4-cyclohexylphenyl)-2-(4-(2-hydroxyethoxy)-3,5-dimethylphenyl)quinazolin-4(3H)-one] | Active
17 | CCC(C)c1ccc(-n2c(-c3ccc4[nH]ccc4c3)nc3ccccc3c2=O)cc1 (stereo not drawn) [Example 74, 3-(4-sec-butylphenyl)-2-(1H-indol-5-yl)quinazolin-4(3H)-one] | Active
18 | Cc1cc(-c2nc3ccccc3c(=O)n2-c2ccc(NS(=O)(=O)C(C)C)cc2)cc(C)c1OCCO [Example 31, N-(4-(2-(4-(2-hydroxyethoxy)-3,5-dimethylphenyl)-4-oxoquinazolin-3(4H)-yl)phenyl)propane-2-sulfonamide] | Active

Row | SMILES | Effect on ApoA-I mRNA levels
19 | O=c1c2ccccc2nc(-c2ccc3[nH]ccc3c2)n1-c1ccc(Cl)cc1 [Example 73, 3-(4-chlorophenyl)-2-(1H-indol-5-yl)quinazolin-4(3H)-one] | Active
20 | O=c1c2ccccc2nc(-c2ccc(C(F)(F)F)nc2)n1-c1ccc(Cl)cc1 [Example 53, 3-(4-chlorophenyl)-2-(6-(trifluoromethyl)pyridin-3-yl)quinazolin-4(3H)-one] | Active
21 | O=c1c2ccccc2nc(-c2ccc(N3CCCCC3)nc2)n1-c1ccc(Cl)cc1 [Example 48, 3-(4-chlorophenyl)-2-(6-(piperidin-1-yl)pyridin-3-yl)quinazolin-4(3H)-one] | Active
22 | COC(=O)c1ccc(-n2c(-c3cc(C)c(OCCO)c(C)c3)nc3ccccc3c2=O)cc1 [Example 25, methyl 4-(2-(4-(2-hydroxyethoxy)-3,5-dimethylphenyl)-4-oxoquinazolin-3(4H)-yl)benzoate] | Active
23 | O=c1c2ccccc2nc(-c2ccc3cc[nH]c3c2)n1-c1ccc(Cl)cc1 [Example 85, 3-(4-chlorophenyl)-2-(1H-indol-6-yl)quinazolin-4(3H)-one] | Active
24 | O=c1c2ccccc2nc(-c2cncc(-c3ccccc3)c2)n1-c1ccc(Cl)cc1 [Example 60, 3-(4-chlorophenyl)-2-(5-phenylpyridin-3-yl)quinazolin-4(3H)-one] | Active
25 | Cc1cc(-c2nc3ccccc3c(=O)n2-c2ccc(N)cc2)cc(C)c1OCCO [Example 28, 3-(4-aminophenyl)-2-(4-(2-hydroxyethoxy)-3,5-dimethylphenyl)quinazolin-4(3H)-one] | Active
26 | Cc1cc(-c2nc3ccccc3c(=O)n2-c2ccc(NS(C)(=O)=O)cc2)cc(C)c1OCCO [Example 29, N-(4-(2-(4-(2-hydroxyethoxy)-3,5-dimethylphenyl)-4-oxoquinazolin-3(4H)-yl)phenyl)methanesulfonamide] | Active
27 | CCC(C)c1ccc(-n2c(-c3ccc(N4CCCCC4)nc3)nc3ccccc3c2=O)cc1 (stereo not drawn) [Example 49, 3-(4-sec-butylphenyl)-2-(6-(piperidin-1-yl)pyridin-3-yl)quinazolin-4(3H)-one] | Active
28 | CCC(C)c1ccc(-n2c(-c3cncc(F)c3)nc3ccccc3c2=O)cc1 (stereo not drawn) [Example 37, 3-(4-sec-butylphenyl)-2-(5-fluoropyridin-3-yl)quinazolin-4(3H)-one] | Active
29 | Cc1cc(-c2nc3ccccc3c(=O)n2-c2ccc(NC(=O)C(C)C)cc2)cc(C)c1OCCO [Example 24, N-(4-(2-(4-(2-hydroxyethoxy)-3,5-dimethylphenyl)-4-oxoquinazolin-3(4H)-yl)phenyl)isobutyramide] | Active
30 | O=c1c2ccccc2nc(-c2cccc3cc[nH]c23)n1-c1ccc(Cl)cc1 [Example 86, 3-(4-chlorophenyl)-2-(1H-indol-7-yl)quinazolin-4(3H)-one] | Active
31 | O=c1c2ccccc2nc(-c2cnc3ccccc3c2)n1-c1ccc(Cl)cc1 [Example 36, 3-(4-chlorophenyl)-2-(quinolin-3-yl)quinazolin-4(3H)-one] | Active
32 | Cc1cc(-c2nc3ccccc3c(=O)n2-c2ccc(N3CCOCC3)cc2)cc(C)c1OCCO [Example 21, 2-(4-(2-hydroxyethoxy)-3,5-dimethylphenyl)-3-(4-morpholinophenyl)quinazolin-4(3H)-one] | Active
33 | CCC(C)c1ccc(-n2c(-c3cccc4[nH]ccc34)nc3ccccc3c2=O)cc1 (stereo not drawn) [Example 90, 3-(4-sec-butylphenyl)-2-(1H-indol-4-yl)quinazolin-4(3H)-one] | Active
34 | CCC(C)c1ccc(-n2c(-c3cc(C)c(OCCO)c(C)c3)nc3ccccc3c2=O)cc1 (stereo not drawn) [1 and 2, 3-(4-sec-butylphenyl)-2-(4-(2-hydroxyethoxy)-3,5-dimethylphenyl)quinazolin-4(3H)-one] | Active
35 | O=c1c2ccccc2nc(-c2ccc3[nH]ccc3c2)n1-c1ccc(OC(F)(F)F)cc1 [Example 76, 2-(1H-indol-5-yl)-3-(4-(trifluoronnethoxy)phenyl)quinazolin-4(3H)-one] | Active
36 | CCN(CC)c1cncc(-c2nc3ccccc3c(=O)n2-c2ccc(Cl)cc2)c1 [Example 61, 3-(4-chlorophenyl)-2-(5-(diethylamino)pyridin-3-yl)quinazolin-4(3H)-one] | Active
